Experimental findings from patent US8933228B2, “Respiratory formulations and compounds for use therein” (Respivert, Ltd., priority 2010, dated 2015) are described below.

One data set has as its target p38 MAPK alpha (MAPK14) (Homo sapiens (Human), UniProt Q16539). Kind of data set: Enzyme inhibition assay (FRET, Z-LYTE), p38 MAPK alpha via MAPKAP-K2 activation. The note with it: read-out: Enzyme Profile: IC50 Values p38α. It counts as biochemical. A digest of the protocol:
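Recombinant p38 MAPKα was preincubated with compound 2 hr at RT. Its activity was measured indirectly through MAPKAP-K2 activation/phosphorylation, read by Z-LYTE FRET after 1 hr protease development. Phosphorylation was taken from the coumarin/fluorescein emission ratio.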

A further data set concerns the target p38 MAPK γ (MAPK12) (Homo sapiens (Human), UniProt P53778). In words: Enzyme inhibition assay (FRET, Z-LYTE), p38 MAPK gamma. The format is biochemical. The note with it: read-out: Enzyme Profile: IC50 Values p38γ. A digest of the protocol: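 Recombinant phosphorylated human p38γ preincubated with compound 2 hr at RT in HEPES buffer, then reacted 1 hr with 2 μM FRET peptide and 100 μM ATP. Protease development 1 hr; phosphorylation derived from coumarin/fluorescein emission ratio.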

The next data set addresses HCK enzyme (Homo sapiens (Human), UniProt P08631). Kind of data set: HCK enzyme inhibition assay (FRET, Z'-LYTE). The format is biochemical. The note with it: read-out: Enzyme Profile: IC50 Values HCK.
Another data set deals with cSrc enzyme (Homo sapiens (Human), UniProt P12931). In words: c-SRC enzyme inhibition assay (FRET, Z'-LYTE). It counts as biochemical. The note with it: read-out: Enzyme Profile: IC50 Values cSrc.
In data set [1] the test system is TNFα release in THP-1 cells. Kind of data set: LPS-induced TNFα release in THP-1 cells. The settings on record: Homo sapiens; THP-1 cells, LPS 3 μg/mL, 4 hr; read-out: THP1 (LPS) TNFα IC50. The format is cell-based. How it is done:
The inhibition of TNFα production was calculated at each concentration by comparison with vehicle control.

Data set [2] has as its system TNFα release in d-U937 cells. Kind of data set: LPS-induced TNFα release in d-U937 cells. The format is cell-based. The note with it: Homo sapiens, dU937, LPS 0.1 μg/mL, 4 hr, relative to 10 μg/mL BIRB796, read-out: d-U937 (LPS) TNFα REC50. A digest of the protocol:
(§1)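 U937 cells made macrophage-like by 48–72 h with PMA (100 ng/mL), then stimulated with LPS (E. coli O111:B4) for 4 h. Supernatant TNFα and IL-8 measured by sandwich ELISA; inhibition versus vehicle control at each concentration, REC50 from concentration-response curve.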

For data set [3], the system named is IL-8 release in d-U937 cells. Kind of data set: LPS-induced IL-8 release in d-U937 cells. The format is cell-based. The settings on record: Homo sapiens, dU937; d-U937 cells, LPS 0.1 μg/mL, 4 hr; read-out: d-U937 (LPS) IL-8 IC50. The gist of the method:
as §1

Data set [4] has as its system ICAM-1 expression in BEAS2B cells. Kind of data set: Poly I:C-induced ICAM-1 induction in BEAS2B cells. It counts as cell-based. The note with it: Homo sapiens, BEAS-2B; BEAS2B cells, poly I:C 1 μg/mL, 18 hr; read-out: BEAS2B (polyIC) ICAM1 IC50. The gist of the method: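 Human bronchial epithelial BEAS2B cells pre-incubated 2 hr with test compounds at final concentrations, then transfected with poly I:C (1 μg/mL) using Oligofectamine. Cell-surface ICAM-1 quantified by cell-based ELISA with HRP-conjugated anti-rabbit IgG secondary.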

Another data set deals with HRV16. Kind of data set: Rhinovirus-titre assay. The note with it: HRV16; for inhibition at 0.04 µg/mL: Human rhinovirus sp., cell not marked b, test compounds 0.04 μg/mL per method (footnote b, 0.2 μg/mL), read-out: HRV titre (inhibitory %): % inhibition observed vs. HRV16 infection control. The format is cell-based, human rhinovirus.
Data set [5] has as its system Differentiated U937 cells. In words: MTT assay: cell viability. It counts as cell-based, human. The note with it: 1 μg/ml; for d-U937 MTT Assay 4 h: 5% FCS; for d-U937 MTT Assay 24 h: 10% FCS. A digest of the protocol:
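Differentiated U937 cells pre-incubated with compound either 4 hr in 5% FCS or 24 h in 10% FCS, then 1 hr MTT. Formazan dissolved in DMSO, absorbance at 550 nm. Percentage viability loss relative to 0.5% DMSO vehicle; apparent increases appear as negative percentages.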
(In general: Tetrazolium dyes change colour on reduction, which living cells bring about.)

Where only a bound is given, the exact number is not on record here.

As for `Cc1ccc(-n2nc(C(C)(C)C)cc2NC(=O)Nc2ccc(Oc3ccnc4[nH]c(=O)[nH]c34)c3ccccc23)cc1` [Example 1, 1-(3-tert-butyl-1-p-tolyl-1H-pyrazol-5-yl)-3-(4-(2-oxo-2,3-dihydro-1H-imidazo [4,5-b]pyridin-7-yloxy)naphthalen-1-yl) urea], the IC50 – broadly, the concentration needed to halve the response being measured – is 17 nM at p38 MAPK alpha (MAPK14); 74 nM on p38 MAPK γ (MAPK12); below 2 nM at HCK enzyme; 7 nM on cSrc enzyme; 1.6 nM in data set [1]; 19 nM in data set [3]. Also, the IC50 in data set [4] was 2.7 nM. Also, the EC50 in data set [2] is 0.2 nM. In addition, the inhibition (as a rule, the percentage by which the read-out fell short of the control) at 0.04 µg/mL with HRV16 is 94%. Moreover, in the data set with HRV16 (at 0.04 μg/mL vs. pleconaril at 0.1 μg/mL), the “NBEC (HRV) HRV titre Relative anti-viral activity” value stood at 0.1. In addition, the “d-U937 MTT Assay 4 h” value in [5] was “− (− and + indicate the result is below and above the no significant effect threshold, respectively (<30% inhibition at a concentration of 1 μg/ml))”. Further, in data set [5], the “d-U937 MTT Assay 24 h” value is “− (− and + indicate the result is below and above the no significant effect threshold, respectively (<30% inhibition at a concentration of 1 μg/ml))”.

Consider `COc1cc(-n2nc(C(C)(C)C)cc2NC(=O)Nc2ccc(Oc3ccnc4[nH]c(=O)cnc34)c3ccccc23)ccc1CO` [Example 18, 1-(3-(tert-Butyl)-1-(4-(hydroxymethyl)-3-methoxyphenyl)-1H-pyrazol-5-yl)-3-(4-((3-oxo-3,4-dihydropyrido[2,3-b]pyrazin-8-yl)oxy)naphthalen-1-yl)urea], for which the IC50 at p38 MAPK alpha (MAPK14) was 5 nM; at p38 MAPK γ (MAPK12) it was 24 nM; at HCK enzyme, 5 nM; on cSrc enzyme, 6 nM; in data set [1], 17 nM; in data set [3], 7.4 nM. The 50% inhibitory concentration (IC50) in data set [4] came to 15 nM. The EC50 in [2] came out at 12 nM. The inhibition at 0.04 µg/mL in the data set on HRV16 was found to be 80%. The “d-U937 MTT Assay 4 h” value in data set [5] is “− (− and + indicate the result is below and above the no significant effect threshold, respectively (<30% inhibition at a concentration of 1 μg/ml))”. In addition, in data set [5], the “d-U937 MTT Assay 24 h” value is “− (− and + indicate the result is below and above the no significant effect threshold, respectively (<30% inhibition at a concentration of 1 μg/ml))”.

With `COc1ccc(-n2nc(C(C)(C)C)cc2NC(=O)Nc2ccc(Oc3ccnc4[nH]c(=O)cnc34)c(Cl)c2Cl)cc1` [Example 19, 1-(3-(tert-Butyl)-1-(4-methoxyphenyl)-1H-pyrazol-5-yl)-3-(2,3-dichloro-4-((3-oxo-3,4-dihydropyrido[2,3-b]pyrazin-8-yl)oxy)phenyl)urea], the IC50 on p38 MAPK alpha (MAPK14) was 2 nM; at p38 MAPK γ (MAPK12), 35 nM; on HCK enzyme, 4 nM; at cSrc enzyme, 7 nM; in [1], 2.1 nM; in data set [3], 1.6 nM. Further, in data set [4], the IC50 is 0.6 nM. Also, the EC50 in data set [2] amounted to 1.3 nM. Also, in the data set on HRV16, the inhibition at 0.04 µg/mL was 80%. In addition, the “d-U937 MTT Assay 4 h” value in [5] was “− (− and + indicate the result is below and above the no significant effect threshold, respectively (<30% inhibition at a concentration of 1 μg/ml))”. Further, in data set [5], the “d-U937 MTT Assay 24 h” value is “− (− and + indicate the result is below and above the no significant effect threshold, respectively (<30% inhibition at a concentration of 1 μg/ml))”.
